Values of other authors as cited in US20120028943A1, “Medicinal Cream Made Using Fluticasone Propionate And Chitosan And A Process To Make The Same” (APEX LABORATORIES PRIVATE LIMITED, priority 2009, published 2012).

How the values were obtained:
[1] = biological target: T1, human glucocorticoid receptors (Homo sapiens, UniProt P04150)
T1 sequence (P04150 1-777): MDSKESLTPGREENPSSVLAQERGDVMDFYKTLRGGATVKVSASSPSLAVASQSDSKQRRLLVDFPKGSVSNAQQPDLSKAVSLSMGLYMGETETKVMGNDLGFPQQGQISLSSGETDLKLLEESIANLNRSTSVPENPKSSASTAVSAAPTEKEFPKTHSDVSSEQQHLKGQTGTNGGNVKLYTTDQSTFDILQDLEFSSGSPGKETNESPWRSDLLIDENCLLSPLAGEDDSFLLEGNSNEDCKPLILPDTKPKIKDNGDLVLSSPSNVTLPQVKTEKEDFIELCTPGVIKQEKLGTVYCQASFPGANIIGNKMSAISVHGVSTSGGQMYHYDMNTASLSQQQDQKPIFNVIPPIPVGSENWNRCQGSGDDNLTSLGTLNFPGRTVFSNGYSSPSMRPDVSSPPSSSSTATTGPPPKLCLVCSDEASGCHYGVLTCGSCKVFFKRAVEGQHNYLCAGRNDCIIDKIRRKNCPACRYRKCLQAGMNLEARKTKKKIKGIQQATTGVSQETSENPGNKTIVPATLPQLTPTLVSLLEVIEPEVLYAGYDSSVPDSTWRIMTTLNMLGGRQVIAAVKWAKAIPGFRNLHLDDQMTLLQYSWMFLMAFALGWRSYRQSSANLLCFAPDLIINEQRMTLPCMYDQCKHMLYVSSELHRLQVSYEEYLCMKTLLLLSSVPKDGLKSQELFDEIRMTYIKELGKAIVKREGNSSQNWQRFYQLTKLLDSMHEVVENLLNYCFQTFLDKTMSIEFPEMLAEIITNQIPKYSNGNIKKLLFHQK

human plasma proteins = conditions: averaged
[2] = biological target: T1, human glucocorticoid receptors; conditions: in vitro
human transcortin = biological target: T2, human transcortin (Homo sapiens, UniProt P08185)
T2 sequence (P08185 23-405): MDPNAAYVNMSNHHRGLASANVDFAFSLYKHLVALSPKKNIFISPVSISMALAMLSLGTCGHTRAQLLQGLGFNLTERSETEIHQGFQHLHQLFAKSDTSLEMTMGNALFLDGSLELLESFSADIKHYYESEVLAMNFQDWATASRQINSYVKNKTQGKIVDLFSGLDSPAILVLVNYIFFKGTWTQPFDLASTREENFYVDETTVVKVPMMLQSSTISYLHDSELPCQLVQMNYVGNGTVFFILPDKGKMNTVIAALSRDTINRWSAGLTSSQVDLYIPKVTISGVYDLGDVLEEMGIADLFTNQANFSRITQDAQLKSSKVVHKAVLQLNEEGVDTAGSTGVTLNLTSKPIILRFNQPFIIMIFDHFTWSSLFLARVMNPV

[3] = not given; remark: listed apart in the source
cytochrome P450 3A4 = cytochrome P450 3A4 (Homo sapiens, UniProt P08684); conditions: liver
[4] = system: HPA (hypothalamic-pituitary-adrenal)-axis; conditions: after dermal administration

cytochrome P450 3A4, sequence (P08684 whole entry): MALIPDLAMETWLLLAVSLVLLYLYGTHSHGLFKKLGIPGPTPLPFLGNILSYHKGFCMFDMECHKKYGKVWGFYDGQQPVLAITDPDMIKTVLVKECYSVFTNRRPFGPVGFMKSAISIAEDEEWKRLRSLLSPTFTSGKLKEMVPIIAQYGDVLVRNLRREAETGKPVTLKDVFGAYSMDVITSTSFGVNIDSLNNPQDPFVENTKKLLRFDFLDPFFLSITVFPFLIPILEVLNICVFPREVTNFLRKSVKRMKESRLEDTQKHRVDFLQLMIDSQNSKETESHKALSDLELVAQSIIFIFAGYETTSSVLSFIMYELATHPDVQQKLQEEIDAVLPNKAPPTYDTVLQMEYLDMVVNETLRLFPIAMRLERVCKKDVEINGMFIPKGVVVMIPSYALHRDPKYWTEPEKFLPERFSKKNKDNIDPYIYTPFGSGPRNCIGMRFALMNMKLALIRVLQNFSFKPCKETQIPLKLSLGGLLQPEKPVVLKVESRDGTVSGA

Q: Which “selectivity to the glucocorticoid receptor” value [1] does the source give for `CCC(=O)O[C@]1(C(=O)SCF)[C@H](C)C[C@H]2[C@@H]3C[C@H](F)C4=CC(=O)C=C[C@]4(C)[C@@]3(F)[C@@H](O)C[C@@]21C` [Fluticasone propionate, S-(fluoromethyl)6α,9-difluoro-11β-17-dihydroxy-16α-methyl-3-oxoandrosta-1,4-diene-17β-carbothioate, 17-propionate] here?
A: high degree of selectivity

Q: And the “affinity for human glucocorticoid receptors” value ([1]; in vitro)?
A: strong affinity

Q: What about the “percentage bound to human plasma proteins” value (human plasma proteins) of the same molecule?
A: 91%

Q: What about the “agonist activity at human glucocorticoid receptors” value [2] of the same molecule?
A: agonist activity

Q: And the binding to erythrocytes (erythrocytes)?
A: weakly and reversibly bound

Q: And the topical anti-inflammatory potency?
A: high

Q: What about the “binding to human transcortin” value (human transcortin) of the same molecule?
A: not significantly hound

Q: And the “solubility in 95% ethanol” value ([3]; 95% ethanol)?
A: slightly soluble

Q: And the “solubility in dimethyl sulfoxide” value ([3]; dimethyl sulfoxide)?
A: freely soluble

Q: What about the solubility in dimethylformamide ([3]; dimethylformamide) of the same molecule?
A: freely soluble

Q: What about the solubility in methanol ([3]; methanol) of the same molecule?
A: slightly soluble

Q: What about the solubility in water ([3]; water) of the same molecule?
A: practically insoluble

Q: What about the metabolism (cytochrome P450 3A4) of the same molecule?
A: metabolized in the liver by cytochrome P450 3A4-mediated hydrolysis

Q: And the HPA-axis suppressive activity [4]?
A: low
